{"source": "patent US12403184B2", "about": "“Compositions and methods for treating neurodegenerative disroders” (priority 2018, dated 2025)", "key": {"HdhQ111 cells [1]": {"tested_on": "HdhQ111 cells", "assay": "Mitochondrial superoxide production (MitoSOX) in striatal cells", "assay_type": "cell-based, mouse", "conditions": "relative to TAT", "experimental": "To examine mitochondrial superoxide production, the cells were stained with MitoSOX (Invitrogen, 5 μM for 10 min) at 37° C. The cells were then washed with PBS three times and mounted for the image analysis. At least 150 cells/group were counted and quantitated."}, "Drp1/ATAD3A": {"molecular_target": "T1, Drp1/ATAD3A (Mus musculus, UniProt Q925I1)", "T1 construct": "The total lysates of cells or mouse striatum were subject to IP analysis; endogenous in cells; host or cells: HdhQ7 / HdhQ111 mouse striatal cells; wild-type mouse striatal cells exposed to 3-NP", "T1 sequence (Q925I1 2-591 limits assumed)": "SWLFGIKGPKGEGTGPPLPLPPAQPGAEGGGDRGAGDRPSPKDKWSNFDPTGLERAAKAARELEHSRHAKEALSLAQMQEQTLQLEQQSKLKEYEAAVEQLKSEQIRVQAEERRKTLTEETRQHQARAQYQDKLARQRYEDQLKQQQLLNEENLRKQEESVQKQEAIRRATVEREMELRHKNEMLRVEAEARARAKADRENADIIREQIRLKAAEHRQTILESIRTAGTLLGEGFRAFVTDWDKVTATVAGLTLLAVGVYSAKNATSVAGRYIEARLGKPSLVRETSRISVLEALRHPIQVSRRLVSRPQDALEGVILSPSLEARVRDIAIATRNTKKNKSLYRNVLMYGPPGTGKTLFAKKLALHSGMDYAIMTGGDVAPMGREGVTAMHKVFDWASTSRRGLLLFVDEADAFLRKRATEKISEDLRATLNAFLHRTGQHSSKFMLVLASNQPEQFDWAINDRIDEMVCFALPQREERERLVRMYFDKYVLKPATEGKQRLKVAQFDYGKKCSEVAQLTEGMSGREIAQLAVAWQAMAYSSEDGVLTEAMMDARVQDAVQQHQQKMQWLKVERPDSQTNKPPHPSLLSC", "assay": "Immunoprecipitation of Drp1/ATAD3A binding in mouse striatal cells", "assay_type": "cell-based", "experimental": "Cells and mouse brain tissues were harvested and lysed in total lysis buffer ([…], pH 7.9, […], […], 1% Triton X-100, and protease inhibitor cocktail) for 30 mins on ice and centrifuged at 12,000×g for 10 min at 4° C. The supernatants were incubated with the indicated primary antibodies or control IgG (sc-2025 and sc-2027, Santa Cruz Biotechnology) overnight at 4° C., followed by incubation with protein A/G beads (sc-2003, Santa Cruz Biotechnology) for 2 h at 4° C. The immunoprecipitates were washed with lysis buffer three times for a total of 30 min and then subject to WB analysis."}, "HD R6/2 mice": {"tested_on": "HD R6/2 mice", "assay": "Striatal neuropathology in R6/2 mice (DARPP-32 immunohistochemistry, Golgi-Cox staining, striatum volume)", "assay_type": "in vivo, mouse", "experimental": "Mice were deeply anesthetized and transcardially perfused with 4% paraformaldehyde in PBS. Brains were processed for paraffin embedment. Brain sections (10 μm, coronal) were used for immunohistochemical localization of DARPP-32 (1:500, Abcam) or ATAD3A (1:200, Genetex) using the IHC Select HRP/DAB kit (Millipore). Quantitation of DARPP-32 immunostaining was conducted using NIH image J software. The same image exposure times and threshold settings were used for sections from all treatment groups. An experimenter blinded to the experimental groups conducted the quantitation.\nCoronal sections (10 μm) spaced 200 μm apart throughout the striatum will be stained with anti-NeuN (Sigma, MAB377, 1:200 dilution) antibody followed by secondary antibodies and detection with diaminobenzidine (DAB, Pierce). The perimeter of the striatum will be traced in each of the serial sections using a ×2 objective. For the volume estimation, consecutive sections (an average of 10-15 sections/animal) will be visualized and the perimeter of the striatum will be outlined. The striatal volume will be estimated by multiplying the sum of all the sectional areas (mm2) by the distance between successive sections (200 μm).\nDendrite morphology of medium spiny neurons in wildtype and HD R6/2 mice was analyzed by Golgi-Cox staining using Novaultra Golgi-Cox Stain Kit (IHCWorld, SKU IW-3023). Briefly, mice were deeply anesthetized and transcardially perfused with 4% paraformaldehyde in PBS. After thoroughly washing with PBS overnight, mouse brains were immersed in the Golgi-Cox solution in dark at room temperature, then replaced with fresh Golgi-Cox Solution after 2 days of immersion and continued the impregnation at room temperature in dark for 14 days following the manufactory instruction. After washing with PBS for 2 days, serial coronal sections of 200 μm thick were cut on Vibratome Series 1000 Sectioning System. […] Total dendritic length per neuron was measured using NIH Image J plug-in simple neurite tracer."}, "HdhQ111 cells [2]": {"tested_on": "HdhQ111 cells", "assay": "Western blot of mitochondrial biogenesis and electron transport proteins in striatal cells", "assay_type": "cell-based, mouse", "experimental": "Mouse striatal cell lines HdhQ7 and Q111 cells are immortalized from knock-in mice carrying 7 and 111 CAG repeats, respectively, in the mouse htt gene. HdhQ7 and HdhQ111 purchased from CHDI Foundation were cultured in DMEM supplemented with 10% (v/v) heat-inactivated FBS, 1% (v/v) penicillin/streptomycin, and 400 μg/ml G418 at 33° C. with 5% CO2. Cells within 14 passages were used in all experiments.\nProtein concentration was measured by protein assay dye reagents (Bio-rad). The protein was resuspended in Laemmli buffer, loaded on SDS-PAGE, and transferred onto nitrocellulose membranes. Membranes were probed with the indicated antibodies, followed by visualization with ECL. Representative blots have been cropped for presentation."}, "[3]": {"conditions": "HdhQ111 cells, 1 μM/day for 4 days"}}, "note": "Where no end group is shown, it is not given here."}
{"substance": "YGRKKRRQRRRGGEDKRKT-NH2 [DA1, YGRKKRRQRRR-GG-EDKRKT-NH2]", "values": [{"measurement": "mitochondrial oxidative stress (mitoROS)", "setting": "HdhQ111 cells [1]", "result": "suppressed"}, {"measurement": "binding of Drp1/ATAD3A", "setting": "Drp1/ATAD3A; HdhQ111 cells, peptide 1 μM/day for 4 days, vs TAT", "result": "significantly reduced"}, {"measurement": "binding of Drp1/ATAD3A", "setting": "Drp1/ATAD3A; wildtype mouse striatal cells exposed to 3-NP (5 mM for 4 hours), DA1 1 μM overnight", "result": "significantly reduced"}, {"measurement": "dendritic morphology of MSN (Golgi-Cox staining)", "setting": "HD R6/2 mice", "result": "improved"}, {"measurement": "striatum volume", "setting": "HD R6/2 mice", "result": "increased"}, {"measurement": "area occupied by DARPP-32-immunostained cells in the striatum", "setting": "HD R6/2 mice; 12 weeks old", "result": "increased"}, {"measurement": "elevation of TFAM level by DA1 treatment", "setting": "HdhQ111 cells [2]; HD mutant cells with ATAD3A knockdown (siRNA)", "result": "ATAD3A knockdown abolished"}, {"measurement": "nuclear-encoded mitochondrial respiratory chain components", "setting": "HdhQ111 cells [2]; HdhQ111 cells", "result": "no effect"}, {"measurement": "PGC1α level", "setting": "HdhQ111 cells [2]; [3]", "result": "restored"}, {"measurement": "TFAM level", "setting": "HdhQ111 cells [2]; [3]", "result": "restored"}, {"measurement": "mtCO2 protein level", "setting": "HdhQ111 cells [2]; [3]", "result": "corrected"}]}
